Where a name gives a salt, the structure may show the parent alone.
Experiment: MIC of test compounds against various organisms
Format: cell-based
Conditions: not given

`COc1ccc2nccc([C@@H](O)CN3CCC(NCc4cc5cccc(O)c5c(=O)[nH]4)CC3)c2c1` [Example 622, (R)-2-{4-[(8-Hydroxy-1-oxo-1,2-dihydro-isoquinolin-3-ylmethyl)-amino]-piperidin-1-yl}-1-(6-methoxyquinolin-4-yl)-ethanol trihydrochloride] and `COc1ccc2nccc([C@@H](O)CN3CCC(NCc4cc5cccnc5n4CC(=O)O)CC3)c2c1` [Example 624, (R)-1-(6-Methoxy-quinolin-4-yl)-2-{4-[(1-carboxymethyl-1H-pyrrolo[2,3-b]pyridine-2-ylmethyl)-amino]-piperidin-1-yl}-ethanol trihydrochloride] cannot be ordered by MIC: ≤ 0.125 µg/mL for the first, ≤ 32 µg/mL for the second.

With `COc1ccc2nccc([C@@H](O)CN3CCC(N(CC(=O)O)Cc4cc5cccnc5n4CC(=O)O)CC3)c2c1` [Example 625, (R)-1-(6-Methoxy-quinolin-4-yl)-2-{4-[carboxymethyl-(1-carboxymethyl-1H-pyrrolo[2,3-b]pyridine-2-ylmethyl)-amino]-piperidin-1-yl}-ethanol dihydrochloride] the MIC was ≤ 32 µg/mL.

Same assay, conditions: against one or more of the above range of gram positive and gram negative bacteria; read-out: MIC

`COc1ccc2nccc([C@@H](O)CN3CCC(NCc4cc5cc(Br)ccc5[nH]4)CC3)c2c1` [Example 9, (R)-2-{4-[(5-Bromo-1 H-indol-2-ylmethyl)amino]-piperidin-1-yl}-1-(6-methoxy-quinolin-4-yl)-ethanol, dioxalate] and `COc1ccc2nc(CNC3CCN(C[C@H](O)c4ccnc5ccc(OC)cc45)CC3)sc2c1` [Example 11, (R)-2-{4-[(6-Methoxy-benzothiazol-2-ylmethyl)-amino]-piperidin-1-yl}-1-(6-methoxy-quinolin-4-yl)-ethanol, dioxalate] cannot be ordered by MIC: ≤ 32 µg/mL for the first, ≤ 32 µg/mL for the second.

`COc1ccc2nccc([C@@H](O)CN3CCC(NCc4nc5cc(F)c(F)cc5[nH]4)CC3)c2c1.O=C(O)C(=O)O.O=C(O)C(=O)O` [Example 14, (R)-2-{4-[(5,6-Difluoro-1H-benzimidazol-2-ylmethyl)-amino]-piperidin-1-yl}-1-(6-methoxyquinolin-4-yl)-ethanol, dioxalate] and `COc1ccc2nccc([C@@H](O)CN3CCC(NCc4cnc5scnc5c4)CC3)c2c1` [Example 623, (R)-1-(6-Methoxy-quinolin-4-yl)-2-{4-[(thiazolo[5,4-b]pyridin-6-ylmethyl)amino]-piperidin-1-yl}-ethanol dioxalate] cannot be ordered by MIC: ≤ 2 µg/mL for the first, ≤ 2 µg/mL for the second.

`COc1ccc2nccc(NC(=O)N3CCC(NCc4nc5c(F)cc(F)cc5[nH]4)CC3)c2n1` [Example 403, 4-[(4,6-Difluoro-1H-benzimidazol-2-ylmethyl)-amino]-piperidine-1-carboxylic acid (6-methoxy-[1,5]naphthyridin-4-yl)-amide, oxalate] and `COc1cc(F)c2nccc(NC(=O)N3CCC(NCc4cnc5c(O)cccc5n4)CC3)c2c1F` [Example 620, 4-[(5-Hydroxy-quinoxalin-2-ylmethyl)amino]-piperidine-1-carboxylic acid (5,8-difluoro-6-methoxy-quinolin-4-yl)-amide oxalate] cannot be ordered by MIC: ≤ 2 µg/mL for the first, ≤ 32 µg/mL for the second.

In the case of `COc1ccc2nccc(NC(=O)N3CCC(NCc4cc5ccccc5[nH]4)CC3)c2c1` [Example 406, 4-[(1H-Indol-2-ylmethyl)-amino]-piperidine-1-carboxylic acid (6-methoxy-quinolin-4-yl)amide, oxalate], the MIC is reported as ≤ 2 µg/mL.
